Results reported in patent US6727253B2, “Treatment of accidental extravasation of anthracyclines” (Antianthra APS, priority 1999, dated 2004).
Read-outs that look alike come from different tables or passages of the source.

Tested on: SC daunorubicin induced wounds in mice
Conditions: for AUC / DW / FW / TTW: Table A
Protocol: The mice were euthanized after healing of all wounds.
The effect of various doses of ICRF-187 was investigated in Example 3.
Comparison of two concentrations of sc daunorubicin were compared with and without simultaneous treatment with ICRF-187 250 mg/kg.
ICRF-187 was administered at the same time as daunorubicin, 3 hours after, and 6 hours after, respectively. Saline served as control. The dose of daunorubicin was 3 mg/kg so and ICRF-187 was administered IP in a 250 mg/kg solution. Twenty-eight mice were used. The results are depicted in data sheet #6 and the mean AUCs are shown graphically in FIG. 5.
100 mg/kg ICRF-187 was injected into the subcutaneous papule produced by injected daunorubicin. This treatment was compared to intralesional saline control, IP saline control, and IP treatment with ICRF-187.
[…]. Seven experiments (n=6, 7, 7, 9, 9, 9, and 9) with 3 mg/kg daunorubicin SC plus saline IP at t=0 and seven experiments (n=6, 7, 7, 9, 9, 8, and 9) with 3 mg/kg daunorubicin SC plus 250 mg/kg ICRF-187 IP at t=0tin two experiments (n=9 and 4) the ICRF-187 doses were 62,5 mg/kg and 375 mg/kg IP, respectively, in two (n=7 and 9) the dose was 125 mg/kg. ICRF-187 250 mg/kg was administered IV in one (n=9).

[1] = Example 3, daunorubicin 3 mg/kg sc + ICRF-187 250 mg/kg IP
[2] = Example 3, daunorubicin 3 mg/kg sc + ICRF-187 375 mg/kg IP
[3] = Example 4, daunorubicin 1 mg/kg sc + ICRF-187 250 mg/kg IP simultaneous
[4] = Example 4, daunorubicin 3 mg/kg sc + ICRF-187 250 mg/kg IP simultaneous
[5] = Example 5, daunorubicin 1 mg/kg sc + ICRF-187 250 mg/kg IP
[6] = Example 5, daunorubicin 3 mg/kg sc + ICRF-187 250 mg/kg IP
[7] = Example 6, daunorubicin 3 mg/kg sc + ICRF-187 250 mg/kg IP 3 hours after daunorubicin
[8] = Example 6, daunorubicin 3 mg/kg sc + ICRF-187 250 mg/kg IP 6 hours after daunorubicin
[9] = Example 6, daunorubicin 3 mg/kg sc + ICRF-187 250 mg/kg IP at the same time
[10] = Example 7, daunorubicin 3 mg/kg sc + 0.05 ml ICRF-187 100 mg/kg IL
[11] = Example 7, daunorubicin 3 mg/kg sc + ICRF-187 250 mg/kg IP
[12] = daunorubicin 1 mg/kg SC + DEX 250 mg/kg IP at t=0, pooled data
[13] = daunorubicin 3 mg/kg SC + DEX 125 mg/kg IP at t=0, +3h and +6h
[14] = daunorubicin 3 mg/kg SC + DEX 125 mg/kg IP at t=0, pooled data
[15] = daunorubicin 3 mg/kg SC + DEX 250 mg/kg IP at t=0, pooled data
[16] = daunorubicin 3 mg/kg SC + DEX 250 mg/kg IP at t=0, pooled data, listed as DEX
[17] = daunorubicin 3 mg/kg SC + DEX 250 mg/kg IP at t=+3h
[18] = daunorubicin 3 mg/kg SC + DEX 250 mg/kg IP at t=+6h
[19] = daunorubicin 3 mg/kg SC + DEX 250 mg/kg IP day 0, 1, and 2
[20] = daunorubicin 3 mg/kg SC + DEX 250 mg/kg IV at t=0
[21] = daunorubicin 3 mg/kg SC + DEX 375 mg/kg IP at t=0
[22] = daunorubicin 3 mg/kg SC + DEX 62,5 mg/kg IP at t=0
[23] = daunorubicin 3 mg/kg SC + DEX 62,5 mg/kg IP at t=0, +3h and +6h
[24] = pooled, daunorubicin 3 mg/kg SC, ICRF-187 250 mg/kg IP at t=0, p<0.0001

C[C@@H](CN1CC(=O)NC(=O)C1)N1CC(=O)NC(=O)C1 [ICRF-187, (+)-1,2-bis(3,5-dioxopiperazinyl-1-yl)propane]
Mean AUC [1]: 395 mm^2 × days
Mean DWw ± SEM [1]: 29.2 ± 1.1 days
Mean TTWw ± SEM [1]: 7.8 ± 1.1 days
Nw/NG [1]: 83%
Mean AUC [2]: 57 mm^2 × days
Mean DWw ± SEM [2]: 27.0 ± 0.0 days
Mean TTWw ± SEM [2]: 4.0 ± 0.0 days
Nw/NG [2]: 25%
reduction of the AUC (Example 3, daunorubicin 3 mg/kg sc, ICRF-187 250 mg/kg vs saline, p<0.05): 48%
reduction of the AUC (Example 3, daunorubicin 3 mg/kg sc, ICRF-187 375 mg/kg vs saline, p<0.05): 93%
reduction in AUC (Example 4, daunorubicin 1 mg/kg sc (low dose), ICRF-187 250 mg/kg IP, p<0.05): 100%
Mean AUC [3]: 0 mm^2 × days
Nw/NG [3]: 0%
reduction in AUC (Example 4, daunorubicin 3 mg/kg sc (high dose), ICRF-187 250 mg/kg IP, p<0.05): 75%
Mean AUC [4]: 313 mm^2 × days
Mean DWw ± SEM [4]: 14.0 ± 1.5 days
Mean TTWw ± SEM [4]: 12.0 ± 3.5 days
Nw/NG [4]: 43%
Mean AUC [5]: 50 mm^2 × days
Mean DWw ± SEM [5]: 16.0 ± 4.0 days
Mean TTWw ± SEM [5]: 10.5 ± 3.5 days
Nw/NG [5]: 22%
reduction of AUC (Example 5, daunorubicin 1 mg/kg sc, ICRF-187 250 mg/kg IP, p<0.05): 73%
Mean AUC [6]: 158 mm^2 × days
Mean DWw ± SEM [6]: 13.7 ± 1.7 days
Mean TTWw ± SEM [6]: 9.9 ± 1.8 days
Nw/NG [6]: 78%
reduction of AUC (Example 5, daunorubicin 3 mg/kg sc, ICRF-187 250 mg/kg IP, p<0.05): 83%
Mean AUC [7]: 421 mm^2 × days
Mean DWw ± SEM [7]: 21.0 ± 4.0 days
Mean TTWw ± SEM [7]: 7.0 ± 0.6 days
Nw/NG [7]: 43%
Mean AUC [8]: 926 mm^2 × days
Mean DWw ± SEM [8]: 24.9 ± 0.8 days
Mean TTWw ± SEM [8]: 6.7 ± 0.6 days
Nw/NG [8]: 100%
Mean AUC [9]: 326 mm^2 × days
Mean DWw ± SEM [9]: 19.6 ± 0.7 days
Mean TTWw ± SEM [9]: 7.7 ± 0.5 days
Nw/NG [9]: 100%
AUC reduced (Example 6, daunorubicin 3 mg/kg sc, ICRF-187 250 mg/kg IP 6 hours delay, statistically non-significant): 34%
AUC reduced (Example 6, daunorubicin 3 mg/kg sc, ICRF-187 250 mg/kg IP at t=0, p<0.05): 77%
AUC reduced (Example 6, daunorubicin 3 mg/kg sc, ICRF-187 250 mg/kg IP at t=+3 hours, p<0.05): 70%
Mean AUC [10]: 403 mm^2 × days
Mean DWw ± SEM [10]: 19.4 ± 2.3 days
Mean TTWw ± SEM [10]: 6.9 ± 1.6 days
Nw/NG [10]: 78%
Mean AUC [11]: 562 mm^2 × days
Mean DWw ± SEM [11]: 19.0 ± 0.9 days
Mean TTWw ± SEM [11]: 9.6 ± 0.7 days
Nw/NG [11]: 89%
reduction of the AUC (Example 7, daunorubicin 3 mg/kg sc, ICRF-187 250 mg/kg IP, p<0.05): 51%
AUC [12]: 28 (± 22) mm^2×days
DW [12]: 16.0 (± 4.0) days
FW [12]: 13%
TTW [12]: 10.5 (± 3.5) days
AUC [13]: 112 (± 37) mm^2×days
DW [13]: 18.0 (± 0.0) days
FW [13]: 22%
TTW [13]: 16.5 (± 0.5) days
AUC [14]: 692 (± 115) mm^2×days
DW [14]: 20.6 (± 0.8) days
FW [14]: 88%
TTW [14]: 8.4 (± 0.6) days
AUC [15]: 373 (± 48) mm^2×days
DW [15]: 17.4 days
FW [15]: 78%
TTW [15]: 9.7 days
DW [16]: 17.4 (± 0.6) days
TTW [16]: 9.7 (± 0.5) days
AUC [17]: 420 (± 206) mm^2×days
DW [17]: 21.0 (± 4.0) days
FW [17]: 43%
TTW [17]: 7.0 (± 0.6) days
AUC [18]: 927 (± 163) mm^2×days
DW [18]: 24.9 (± 0.8) days
FW [18]: 100%
TTW [18]: 6.7 (± 0.6) days
AUC [19]: 128 (± 34) mm^2×days
DW [19]: 13.3 (± 1.2) days
FW [19]: 75%
TTW [19]: 17.7 (± 1.0) days
AUC [20]: 479 (± 141) mm^2×days
DW [20]: 19.3 (± 1.3) days
FW [20]: 67%
TTW [20]: 9.2 (± 1.2) days
AUC [21]: 57 (± 57) mm^2×days
DW [21]: 23.0 (± 0.0) days
FW [21]: 25%
TTW [21]: 4.0 (± 0.0) days
AUC [22]: 662 (± 223) mm^2×days
DW [22]: 19.4 (± 1.3) days
FW [22]: 89%
TTW [22]: 8.1 (± 0.5) days
AUC [23]: 0 mm^2×days
FW [23]: 0%
prevention of lesions (daunorubicin induced lesions, ICRF-187 250 mg/kg IP three days in a row): completely prevented
protection by IP injection compared to IV administration (daunorubicin induced wounds, ICRF-187 250 mg/kg): no statistically significant difference
degree of protection, triple-treatment (daunorubicin, ICRF-187 62,5 or 125 mg/kg IP at 0, 3 and 6 hours): at least the same degree of protection as a single injection of 250 mg/kg ICRF-187 IP
protection with delayed administration (daunorubicin, ICRF-187 administered 3 hours after): no different from the protection obtained by immediate ICRF-187 administration
protection with delayed administration (daunorubicin, ICRF-187 delay 6 hours): protection was lost
treatment-related deaths (mouse, in vivo): no treatment-related deaths
reduction in AUC (pooled, daunorubicin 3 mg/kg SC, ICRF-187 125 mg/kg IP, p=0.0175 vs 250 mg/kg): 45%
mean duration of wounds reduced by [24]: 35%
mean time to wounds delayed by [24]: 76%
mean AUC reduced by (pooled, daunorubicin 3 mg/kg SC, single ICRF-187 250 mg/kg IP at t=0, p<0.0001): 70%
